One block for each molecule: values may come before it.
How the values were obtained:
LPDE4 [1] = assay: Ability to inhibit low affinity LPDE4 (cAMP disappearance) versus competing for high affinity HPDE4 ([H3]rolipram binding); assay type: biochemical
Text: Advantageously the compounds of the invention are characterized by a selectivity toward LPDE4 higher than that toward HPDE4 as obtained by the determination of their IC50. In the case of LPDE4, the IC50 is the molar concentration of the test compound producing 50% inhibition of cAMP disappearance, assessed as described in Cortijo J et al., Br. J. Pharmacol., 1993, 108: 562-568, while in the case of HPDE4, the IC50 is the molar concentration of the test compound producing 50% inhibition of the binding of [H^3] rolipram, assessed as described in Duplantier A J et al., J. Med. Chem., 1996; 39: 120-125. Preferably the HPDE4/LPDE IC50 ratio for the compounds of the invention is higher than 10, more preferably higher than 100, even more preferably higher than 300.
The affinity toward LPDE4 and HPDE4 is assessed as previously described respectively in Cortijo J et al., Br. J. Pharmacol., 1993, 108: 562-568 and Duplantier A J et al., J. Med. Chem., 1996; 39: 120-125. The activity of compounds 1, 2, 4, 5, 6, and 7 is evaluated.

[2] = test system: LPS-induced TNF-α release in peripheral blood mononuclear cells (PBMCs); assay: PDE4 inhibitory activity in the PBMCs assay (LPS-induced TNF-α release); assay type: cell-based; conditions: PBMC; human PBMCs, LPS 3 ng/ml, 18 hours; read-out: IC50 in the PBMCs assay (50% inhibition of LPS-induced TNF-α release)
Procedure: The assay, which is based on the known inhibitory activity exerted by PDE4 inhibitors on the lipopolyshaccarides (LPS)-induced tumour necrosis factor-alpha (TNF-α release in peripheral blood mononuclear cells (PBMCs), is performed according to a method previously described (Hatzelmann A et al., J. Pharmacol. Exp. Ther., 2001; 297:267-279; and Draheim R et al., J. Pharmacol. Exp. Ther., 2004; 308:555-563. Cryopreserved human PBMCs, (100 μl/well) are incubated in 96-well plates (10^5 cells/well), for 30 minutes, in the presence or absence (50 microl) of the test compounds whose concentrations ranged from 10^−12 M to 10^−6 M. Subsequently, LPS (3 ng/ml) is added. After 18 hours of incubation at 37° C. in a humidified incubator under an atmosphere of 95% air and 5% CO2, culture medium is collected and TNF-α measured by ELISA.
The results are expressed as mean±95% confidence limits of the molar concentration of the test compound producing 50% inhibition of LPS-induced TNF-α release (IC50). […] The effects of the tested compounds are calculated as percentage of inhibition of TNF-α release, assuming LPS-induced TNF-α production in the absence of inhibitor compound as 100% and basal TNF-α production of PBMCs in the absence of LPS as 0%.

LPDE4 [3] = conditions: literature, Giembycz et al. 2001; cited from earlier work
HPDE4 = conditions: literature, Giembycz et al. 2001; cited from earlier work

Structure (SMILES): COc1ccc(C(=Cc2c(Cl)cncc2Cl)OC(=O)c2ccccc2)c2c1oc1ccc([N+](=O)[O-])cc12 [Compound 1, Benzoic acid 2-(3,5-dichloro-pyridin-4-yl)-1-(4-methoxy-8-nitro-dibenzofuran-1-yl)-vinyl ester]
inhibition of LPDE4 (affinity) (LPDE4 [1]): nanomolar affinity | IC50 [2]: 1 to 150 nM

Structure (SMILES): COc1ccc(C(=Cc2c(Cl)cncc2Cl)OC(=O)c2ccccc2)c2c1oc1ccc(NS(C)(=O)=O)cc12 [Compound 5, Benzoic acid 2-(3,5-dichloro-pyridin-4-yl)-1-(8-methanesulfonylamino-4-methoxy-dibenzofuran-1-yl)-vinyl ester]
inhibition of LPDE4 (affinity) (LPDE4 [1]): nanomolar affinity | IC50 [2]: 1 to 150 nM

Structure (SMILES): COc1ccc(C(=Cc2c(Cl)c[n+]([O-])cc2Cl)OC(=O)c2ccccc2)c2c1oc1ccc([N+](=O)[O-])cc12 [Compound 6, Benzoic acid 2-(3,5-dichloro-1-oxy-pyridin-4-yl)-1-(4-methoxy-8-nitro-dibenzofuran-1-yl)-vinyl ester]
inhibition of LPDE4 (affinity) (LPDE4 [1]): nanomolar affinity

Structure (SMILES): COc1ccc([C@]2(C#N)CC[C@@H](C(=O)O)CC2)cc1OC1CCCC1 [cilomilast]
HPDE4/LPDE4 ratio (LPDE4 [3]): about 1.3 | IC50 (LPDE4 [3]): 90 nM | IC50 (HPDE4): 120 nM

Now from value to molecule, other results behind:

inhibition of LPDE4 (affinity) (LPDE4 [1]): nanomolar affinity
Structure (SMILES): COc1ccc(C(=Cc2c(Cl)cncc2Cl)OC(=O)c2ccccc2)c2c1oc1ccccc12 [Compound 2, Benzoic acid 2-(3,5-dichloro-pyridin-4-yl)-1-(4-methoxy-dibenzofuran-1-yl)-vinyl ester]
IC50 [2]: 1 to 150 nM

inhibition of LPDE4 (affinity) (LPDE4 [1]): nanomolar affinity
Structure (SMILES): COc1ccc(C(=Cc2c(Cl)cncc2Cl)OC(=O)c2ccccc2)c2c1oc1ccc(N)cc12 [Compound 4, Benzoic acid 2-(3,5-dichloro-pyridin-4-yl)-1-(4-methoxy-8-amino-dibenzofuran-1-yl)-vinyl ester]
IC50 [2]: 1 to 150 nM

inhibition of LPDE4 (affinity) (LPDE4 [1]): nanomolar affinity
Structure (SMILES): COc1ccc(C(=Cc2c(Cl)c[n+]([O-])cc2Cl)OC(=O)c2ccccc2)c2c1oc1ccccc12 [Compound 7, Benzoic acid 2-(3,5-dichloro-1-oxy-pyridin-4-yl)-1-(4-methoxy-dibenzofuran-1-yl)-vinyl ester]
IC50 [2]: 1 to 150 nM
